# Laboratory results from patent US20230312587A1, “PTERIDINONE COMPOUNDS AND USES THEREOF” (Vertex Pharmaceutical Incorporated, priority 2018, published 2023).
# System: β-catenin-TCF-mediated reporter transcription activity in Colo 205 cells
# Test: Colo 205 reporter assay (TCF/LEF luciferase)
# Type: cell-based
# Details: Colo 205 TCF/LEF luciferase reporter, five hours after addition of compound; read-out: TCF reporter Colo205 IC50
# Outline: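 Luciferase signal from a TCF/LEF-driven reporter, stably integrated in Colo 205 colon cancer cells, was measured 5 h after compound addition.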
row,IC50 [nM],SMILES
1,300 to 1000,"COCC1(C)C(=O)Nc2c(C)nc(NCc3cnn(Cc4ccc(C(F)(F)F)nc4)c3)nc2N1C (centres unmarked) [Compound 707, 7-(methoxymethyl)-4,7,8-trimethyl-2-(((1-((6-(trifluoromethyl)pyridin-3-yl)methyl)-1H-pyrazol-4-yl)methyl)amino)-7,8-dihydropteridin-6(5H)-one]"

# Same assay, conditions: Homo sapiens, COLO 205, 5 h, Colo 205 TCF/LEF luciferase reporter, five hours after addition of compound; read-out: TCF reporter Colo205 IC50
row,SMILES,IC50 [nM]
1,"Cc1nc(N[C@H]2C[C@H](Nc3ccc(C(F)(F)F)cn3)C2)nc2c1NC(=O)[C@H](C(C)C)N2C [Compound 533, (S)-7-isopropyl-4,8-dimethyl-2-((trans-3-((5-(trifluoromethyl)pyridin-2-yl)amino)cyclobutyl)amino)-7,8-dihydropteridin-6(5H)-one]",300 to 1000
2,"Cc1nc(N[C@H]2C[C@@H](COc3ccc(F)cc3Cl)C2)nc2c1NC(=O)[C@H](C)N2C [Compound 282, (7S)-2-((cis-3-((2-chloro-4-fluorophenoxy)methyl)cyclobutyl)amino)-4,7,8-trimethyl-7,8-dihydropteridin-6(5H)-one]",< 300
3,"Cc1nc(N[C@H]2C[C@@H](Nc3cccc(C(F)(F)F)n3)C2)nc2c1NC(=O)[C@H](C(C)C)N2C [Compound 532, (S)-7-isopropyl-4,8-dimethyl-2-((cis-3-((6-(trifluoromethyl)pyridin-2-yl)amino)cyclobutyl)amino)-7,8-dihydropteridin-6(5H)-one]",300 to 1000
4,"Cc1nc(N[C@H]2C[C@H](Oc3ncc(F)cn3)C2)nc2c1N(C)C(=O)[C@H](C)N2C [Compound 274, (S)-2-((trans-3-((5-fluoropyrimidin-2-yl)oxy)cyclobutyl)amino)-4,5,7,8-tetramethyl-7,8-dihydropteridin-6(5H)-one]",≥ 5000
5,"Cc1nc(N[C@H]2C[C@H](NC(=O)Nc3ccc(C(F)(F)F)nc3)C2)nc2c1NC(=O)[C@H](C)N2C [Compound 471, 1-(6-(trifluoromethyl)pyridin-3-yl)-3-(trans-3-(((S)-4,7,8-trimethyl-6-oxo-5,6,7,8-tetrahydropteridin-2-yl)amino)cyclobutyl)urea]",≥ 5000
6,"Cc1nc(N[C@H]2C[C@H](Oc3ccc(OC(F)F)nc3)C2)nc2c1N(C)C(=O)[C@H](C)N2C [Compound 362, (7S)-2-((trans-3-((6-(difluoromethoxy)pyridin-3-yl)oxy)cyclobutyl)amino)-4,5,7,8-tetramethyl-7,8-dihydropteridin-6(5H)-one]",300 to 1000
7,"Cc1nc(NC2CC2COc2ccccc2)nc2c1NC(=O)[C@H](C)N2C (stereo partly drawn) [Compound 278, (7S)-4,7,8-trimethyl-2-((2-(phenoxymethyl)cyclopropyl)-amino)-7,8-dihydropteridin-6(5H)-one]",1000 to 5000
8,"CCN1C(=O)C2(CC2)N(CC)c2nc(NCc3cnn(Cc4cc(F)c(F)c(F)c4)c3)ncc21 [Compound 233, 5′,8′-diethyl-2′-(((1-(3,4,5-trifluorobenzyl)-1H-pyrazol-4-yl)methyl)amino)-5′,8′-dihydro-6′H-spiro[cyclopropane-1,7′-pteridin]-6′-one]",< 300
9,"Cc1nc(N[C@H]2C[C@H](NC(=O)Nc3ccc(F)cc3)C2)nc2c1NC(=O)[C@H](C)N2C [Compound 459, 1-(4-fluorophenyl)-3-(trans-3-(((S)-4,7,8-trimethyl-6-oxo-5,6,7,8-tetrahydropteridin-2-yl)amino)cyclobutyl)urea]",≥ 5000
10,"Cc1nc(NCc2cnn(Cc3cc(C(F)(F)F)n(C)n3)c2)nc2c1NC(=O)[C@H](C)N2C [Compound 190, (7S)-4,7,8-trimethyl-2-(((1-((1-methyl-5-(trifluoromethyl)-1H-pyrazol-3-yl)methyl)-1H-pyrazol-4-yl)methyl)amino)-7,8-dihydropteridin-6(5H)-one]",300 to 1000
11,"Cc1nc(N[C@H]2C[C@H](Oc3cncc(C(F)(F)F)c3)C2)nc2c1N(C)C(=O)[C@H](C)N2C [Compound 314, (7S)-4,5,7,8-tetramethyl-2-((trans-3-((5-(trifluoromethyl)pyridin-3-yl)oxy)cyclobutyl)amino)-7,8-dihydropteridin-6(5H)-one]",300 to 1000
12,"Cc1nc(NCc2cnn(Cc3ccc(C(C)(C)C)nc3)c2)nc2c1NC(=O)[C@H](C(C)C)N2C [Compound 469, (S)-2-(((1-((6-(tert-butyl)pyridin-3-yl)methyl)-1H-pyrazol-4-yl)methyl)amino)-7-isopropyl-4,8-dimethyl-7,8-dihydropteridin-6(5H)-one]",< 300
13,"Cc1nc(N[C@H]2C[C@H](Oc3ccc(F)c(F)c3F)C2)nc2c1N(C)C(=O)[C@H](C)N2C [Compound 293, (7S)-4,5,7,8-tetramethyl-2-((trans-3-(2,3,4-trifluorophenoxy)cyclobutyl)-amino)-7,8-dihydropteridin-6(5H)-one]",< 300
14,"COc1ccc(O[C@H]2C[C@H](Nc3nc(C)c4c(n3)N(C)[C@@H](C)C(=O)N4)C2)c(F)c1 [Compound 354, (7S)-2-((trans-3-(2-fluoro-4-methoxyphenoxy)cyclobutyl)amino)-4,7,8-trimethyl-7,8-dihydropteridin-6(5H)-one]",1000 to 5000
15,"Cc1nc(N[C@H]2C[C@@H](Nc3cc(F)c(F)c(F)c3)C2)nc2c1NC(=O)[C@H](C)N2C [Compound 485, (S)-4,7,8-trimethyl-2-((cis-3-((3,4,5-trifluorophenyl)amino)cyclobutyl)amino)-7,8-dihydropteridin-6(5H)-one]",< 300
16,"Cc1nc(NCc2cnn(C3CCOCC3)c2)nc2c1NC(=O)[C@H](C)N2C [Compound 118, (7S)-4,7,8-trimethyl-2-(((1-(tetrahydro-2H-pyran-4-yl)-1H-pyrazol-4-yl)methyl)amino)-7,8-dihydropteridin-6(5H)-one]",≥ 5000
17,"Cc1nc(N[C@H]2C[C@@H](NC(=O)Cc3ccc(C(F)(F)F)nc3)C2)nc2c1NC(=O)[C@H](C(C)C)N2C [Compound 559, N-(cis-3-(((S)-7-isopropyl-4,8-dimethyl-6-oxo-5,6,7,8-tetrahydropteridin-2-yl)amino)cyclobutyl)-2-(6-(trifluoromethyl)pyridin-3-yl)acetamide]",1000 to 5000
18,"Cc1nc(N[C@@H]2CC[C@H](NC(=O)c3cc(F)c(F)c(F)c3)C2)nc2c1NC(=O)[C@H](C)N2C (mixture of isomers) [Compound 298, 3,4,5-trifluoro-N-(cis-3-(((S)-4,7,8-trimethyl-6-oxo-5,6,7,8-tetrahydropteridin-2-yl)amino)cyclopentyl)benzamide]",1000 to 5000
19,"COc1ccc(O[C@H]2C[C@H](Nc3nc(C)c4c(n3)N(C)[C@@H](C)C(=O)N4)C2)cc1OC [Compound 352, (7S)-2-((trans-3-(3,4-dimethoxyphenoxy)cyclobutyl)amino)-4,7,8-trimethyl-7,8-dihydropteridin-6(5H)-one]",1000 to 5000

# Continued, values first:
row,IC50 [nM],SMILES
1,1000 to 5000,"Cc1nc(NCc2cnn(Cc3ccc(C(F)(F)F)nc3)c2)nc2c1NC(=O)C1(COC1)N2C [Compound 600, 4′,8′-dimethyl-2′-(((1-((6-(trifluoromethyl)pyridin-3-yl)methyl)-1H-pyrazol-4-yl)methyl)amino)-5′,8′-dihydro-6′H-spiro[oxetane-3,7′-pteridin]-6′-one]"
2,1000 to 5000,"Cc1nc(NC2CN(C(=O)c3cn(C)nc3C(F)(F)F)C2)nc2c1NC(=O)[C@H](C(C)C)N2C [Compound 609, (S)-7-isopropyl-4,8-dimethyl-2-((1-(1-methyl-3-(trifluoromethyl)-1H-pyrazole-4-carbonyl)azetidin-3-yl)amino)-7,8-dihydropteridin-6(5H)-one]"
3,300 to 1000,"Cc1nc(NCc2ccn(Cc3ccc(C(F)(F)F)nc3)n2)nc2c1NC(=O)C1(CC(F)(F)C1)N2C [Compound 601, 3,3-difluoro-4′,8′-dimethyl-2′-(((1-((6-(trifluoromethyl)pyridin-3-yl)methyl)-1H-pyrazol-3-yl)methyl)amino)-5′,8′-dihydro-6′H-spiro[cyclobutane-1,7′-pteridin]-6′-one]"
4,1000 to 5000,"Cc1nc(NCc2cnn(Cc3ccc(C(F)(F)F)nc3)c2)nc2c1NC(=O)[C@H](C(C)(C)O)N2C [Compound 726, (S)-7-(2-hydroxypropan-2-yl)-4,8-dimethyl-2-(((1-((6-(trifluoromethyl)pyridin-3-yl)methyl)-1H-pyrazol-4-yl)methyl)amino)-7,8-dihydropteridin-6(5H)-one]"
5,300 to 1000,"Cc1nc(N[C@H]2C[C@@H](COc3ccc(C(F)(F)F)nc3)C2)nc2c1NC(=O)C1(CCOC1)N2C (relative stereo) [Compound 697, 4′,8′-dimethyl-2′-((cis-3-(((6-(trifluoromethyl)pyridin-3-yl)oxy)methyl)cyclobutyl)amino)-4,5,5′,8′-tetrahydro-2H,6′H-spiro[furan-3,7′-pteridin]-6′-one]"
6,< 300,"Cc1nc(N[C@H]2C[C@H](N(C)c3cnc(C(F)(F)F)cn3)C2)nc2c1NC(=O)[C@H](C(C)C)N2C [Compound 655, (7S)-7-isopropyl-4,8-dimethyl-2-((trans-3-(methyl(5-(trifluoromethyl)pyrazin-2-yl)amino)cyclobutyl)amino)-7,8-dihydropteridin-6(5H)-one]"
7,< 300,"CC[C@H]1C(=O)Nc2c(C)nc(N[C@H]3C[C@@H](CNc4cnc(C(F)(F)F)cn4)C3)nc2N1C [Compound 713, (S)-7-ethyl-4,8-dimethyl-2-((cis-3-(((5-(trifluoromethyl)pyrazin-2-yl)amino)methyl)cyclobutyl)amino)-7,8-dihydropteridin-6(5H)-one]"
8,< 300,"Cc1nc(NCc2cnn(Cc3ccc(C(F)(F)F)nc3)c2)nc2c1NC(=O)[C@H](CC(C)C)N2C [Compound 563, (S)-7-isobutyl-4,8-dimethyl-2-(((1-((6-(trifluoromethyl)pyridin-3-yl)methyl)-1H-pyrazol-4-yl)methyl)amino)-7,8-dihydropteridin-6(5H)-one]"

# Same assay, conditions: Homo sapiens, COLO 205, 5 h, R-isomer at C2 (corresponding to C2 S-isomer); Colo 205 TCF/LEF luciferase reporter, 5 h; read-out: TCF reporter Colo205 IC50
row,IC50 [nM],SMILES
1,1000 to 5000,Cc1nc(NCc2cnn(Cc3ccncc3C(F)(F)F)c2)nc2c1NC(=O)[C@@H](C)N2C [Compound I-1637]
